Assay results taken from ChEMBL document CHEMBL5584310, “Phenanthrenes from Juncus articulatus with Antibacterial and Biofilm Formation Inhibitory Activity” (J Nat Prod, 2024).
≈ marks a conversion by molar mass, not a printed value.

What was measured:
Pseudomonas aeruginosa = assay: Antibacterial activity against Pseudomonas aeruginosa PAO1 assessed as inhibition of bacterial growth incubated for 16 hrs; type: functional
Staphylococcus aureus [1] = assay: Antibacterial activity against methicillin-susceptible Staphylococcus aureus ATCC 6538 assessed as inhibition of bacterial growth incubated for 16 hrs; type: functional
Staphylococcus aureus [2] = assay: Antibacterial activity against methicillin-resistant Staphylococcus aureus ATCC 33592 assessed as inhibition of bacterial growth incubated for 16 hrs; type: functional
Staphylococcus aureus [3] = assay: Antibiofilm activity against methicillin-susceptible Staphylococcus aureus ATCC 6538 assessed as biofilm eradication incubated for 24 hrs by crystal violet staining based microplate reader assay; type: functional
Staphylococcus aureus [4] = assay: Antibiofilm activity against methicillin-susceptible Staphylococcus aureus ATCC 6538 assessed as inhibition of biofilm formation incubated for 24 hrs by crystal violet staining based microplate reader assay; type: functional
Escherichia coli = assay: Antibacterial activity against Escherichia coli ATCC 25922 assessed as inhibition of bacterial growth incubated for 16 hrs; type: functional
Staphylococcus aureus [5] = assay: Antibiofilm activity against methicillin-resistant Staphylococcus aureus ATCC 33592 assessed as inhibition of biofilm formation incubated for 24 hrs by crystal violet staining based microplate reader assay; type: functional
HeLa = assay: Antiproliferative activity against human HeLa cells assessed as inhibition of cell growth incubated for 72 hrs by MTT assay; type: functional, cell-based
COLO 205 = assay: Antiproliferative activity against human COLO 205 cells assessed as inhibition of cell growth incubated for 72 hrs by MTT assay; type: functional, cell-based; conditions: COLO 205, 72 h
COLO 320 = assay: Antiproliferative activity against human COLO 320 cells assessed as inhibition of cell growth incubated for 72 hrs by MTT assay; type: functional, cell-based; conditions: COLO 320, 72 h
Staphylococcus aureus [6] = assay: Antibiofilm activity against methicillin-resistant Staphylococcus aureus ATCC 33592 assessed as biofilm eradication incubated for 24 hrs by crystal violet staining based microplate reader assay; type: functional
SiHa = assay: Antiproliferative activity against human SiHa cells assessed as inhibition of cell growth incubated for 72 hrs by MTT assay; type: functional, cell-based

| SMILES | MIC (Pseudomonas aeruginosa) | MIC (Staphylococcus aureus [1]) | MIC (Staphylococcus aureus [2]) | MBEC (Staphylococcus aureus [3]) | MBIC (Staphylococcus aureus [4]) | MIC (Escherichia coli) | MBIC (Staphylococcus aureus [5]) | IC50 (HeLa) | IC50 (COLO 205) | IC50 (COLO 320) | MBEC (Staphylococcus aureus [6]) | IC50 (SiHa) |
| --- | --- | --- | --- | --- | --- | --- | --- | --- | --- | --- | --- | --- |
| O=C(O)c1cn(C2CC2)c2cc(N3CCNCC3)c(F)cc2c1=O [CIPROFLOXACIN] | 0.37 µM (≈ 0.123 µg/mL) | 0.37 µM (≈ 0.123 µg/mL) | 0.37 µM (≈ 0.123 µg/mL) | >386.7 µM | 0.75 µM |  |  |  |  |  |  |  |
| C=Cc1c(C)c(O)cc2c1ccc1c(C)c(Oc3c(O)c(C)c(C=C)c4ccc5c(C)c(O)ccc5c34)ccc12 | > 243 µM | 122 µM (≈ 64 µg/mL) | 122 µM (≈ 64 µg/mL) |  |  | > 243 µM |  |  |  |  |  |  |
| C=Cc1c(C)c(O)cc2c1CCc1c-2cc(-c2cc3c(c(C)c2O)CCc2c-3cc(O)c(C)c2C=C)c(O)c1C | > 121 µM | 60.5 µM (≈ 32.1 µg/mL) | 60.5 µM (≈ 32.1 µg/mL) |  | 121 µM | > 121 µM | 242 µM |  |  |  |  |  |
| C=Cc1c(C)c(O)cc2c1CCc1c-2ccc(O)c1C | > 481 µM | 481 µM (≈ 128 µg/mL) | 481 µM (≈ 128 µg/mL) |  |  | > 481 µM |  |  |  |  |  |  |
| C=Cc1c(COC)c(O)cc2c1CCc1c-2ccc(O)c1C | > 413 µM | 413 µM (≈ 122 µg/mL) | 413 µM (≈ 122 µg/mL) |  |  | > 413 µM |  |  |  |  |  |  |
| C=Cc1c(CO)c(O)cc2c1ccc1c(C)c(O)ccc12 | > 229 µM | 114 µM (≈ 32 µg/mL) | 114 µM (≈ 32 µg/mL) |  | 114.3 µM | > 229 µM |  |  |  |  |  |  |
| C=Cc1c(C)cc(O)c2c1CCc1c-2cc(-c2c(O)c(C)c(C=C)c3ccc4c(C)c(O)ccc4c23)c(O)c1C | > 242 µM | 60.5 µM (≈ 32 µg/mL) | 60.5 µM (≈ 32 µg/mL) |  | 60.5 µM | > 242 µM | 60.5 µM | 12.3 µM | 12.3 µM | 12.3 µM |  |  |
| CN[C@H](CC(C)C)C(=O)N[C@H]1C(=O)N[C@@H](CC(N)=O)C(=O)N[C@H]2C(=O)N[C@H]3C(=O)N[C@H](C(=O)N[C@H](C(=O)O)c4cc(O)cc(O)c4-c4cc3ccc4O)[C@H](O)c3ccc(c(Cl)c3)Oc3cc2cc(c3O[C@@H]2O[C@H](CO)[C@@H](O)[C@H](O)[C@H]2O[C@H]2C[C@](C)(N)[C@H](O)[C@H](C)O2)Oc2ccc(cc2Cl)[C@H]1O [VANCOMYCIN] | 1770 µM (≈ 2560 µg/mL) |  | 1.38 µM (≈ 2 µg/mL) | >88.3 µM |  | 177 µM (≈ 256 µg/mL) | 1.38 µM |  |  |  | >88.3 µM |  |
| C=Cc1c(C)c(Oc2c(O)c(C)c(C=C)c3ccc4c(C)c(O)ccc4c23)cc2c1ccc1c(C)c(O)ccc12 | > 121 µM | 60.5 µM (≈ 31.9 µg/mL) | 60.5 µM (≈ 31.9 µg/mL) |  | 121 µM | > 121 µM |  |  |  |  |  |  |
| C=Cc1c(CO)cc(O)c2c1CCc1c-2ccc(O)c1C | > 454 µM | 114 µM (≈ 32 µg/mL) | 114 µM (≈ 32 µg/mL) |  | 227 µM | > 454 µM | 227 µM | 12.3 µM | 12.3 µM | 12.3 µM |  |  |
| C#Cc1c(C)c(O)cc2c1ccc1c(C)c(O)ccc12 | > 488 µM | 15.3 µM (≈ 4.01 µg/mL) | 15.3 µM (≈ 4.01 µg/mL) | >488 µM | 15.3 µM | > 488 µM |  |  |  |  |  |  |
| C#Cc1c(C)c(O)cc2c1CCc1c-2ccc(O)c1C | > 485 µM | 121 µM (≈ 32.1 µg/mL) | 121 µM (≈ 32.1 µg/mL) |  |  | > 485 µM |  |  |  |  |  | 25.3 µM |
| C=Cc1c(C)c(O)cc2c3c(ccc12)C(C)(O)C(=O)C=C3 (stereo not drawn) | > 458 µM | 229 µM (≈ 64.2 µg/mL) | 229 µM (≈ 64.2 µg/mL) |  |  | > 458 µM |  |  |  |  |  |  |
| C=Cc1c(C)c(O)cc2c1ccc1c(C)c(O)ccc12 | > 484 µM | 15.1 µM (≈ 3.99 µg/mL) | 15.1 µM (≈ 3.99 µg/mL) | >484 µM | 15.1 µM | > 484 µM |  |  |  |  |  |  |
| C=CC1=C(C)C(=O)C=C2c3ccc(O)c(C)c3CC[C@@]21O | > 454 µM | 56.8 µM (≈ 16 µg/mL) | 56.8 µM (≈ 16 µg/mL) |  | 113.5 µM | > 454 µM |  |  |  |  |  |  |
| C#Cc1c(CO)c(O)cc2c1CCc1c-2ccc(O)c1C | > 457 µM | 57.1 µM (≈ 16 µg/mL) | 57.1 µM (≈ 16 µg/mL) |  | 114.3 µM | > 457 µM |  | 12.3 µM | 12.3 µM | 12.3 µM |  |  |
| C#Cc1c(CO)c(O)cc2c1ccc1c(C)c(O)ccc12 | > 230 µM | 57.5 µM (≈ 16 µg/mL) | 115 µM (≈ 32 µg/mL) |  | 115 µM | > 230 µM | 114.3 µM |  |  |  |  |  |
| CC(=O)c1c(C)c(O)cc2c1ccc1c(C)c(O)ccc12 | > 457 µM | 457 µM (≈ 128 µg/mL) | 457 µM (≈ 128 µg/mL) |  |  | > 457 µM |  |  |  |  |  |  |
| C=Cc1c(C)c(O)c(-c2cc3c(c(C)c2O)CCc2c(C=O)c(C)cc(O)c2-3)c2c1ccc1c(C)c(O)ccc12 | > 121 µM | 60.5 µM (≈ 32.1 µg/mL) | 121 µM (≈ 64.2 µg/mL) |  |  | > 121 µM |  |  |  |  |  |  |
| C=Cc1c(C)cc(O)c2c1CCc1c-2ccc(O)c1C | > 480 µM | 30 µM (≈ 7.99 µg/mL) | 30 µM (≈ 7.99 µg/mL) |  | 60 µM | > 480 µM | 60 µM | 12.3 µM | 12.3 µM | 12.3 µM |  |  |
| C=Cc1c(COC)c(O)cc2c1ccc1c(C)c(O)ccc12 | > 435 µM | 218 µM (≈ 64 µg/mL) | 218 µM (≈ 64 µg/mL) |  |  | > 435 µM |  |  |  |  |  |  |
